target: human CB2 receptors (Homo sapiens (Human), UniProt P34972); assay: Affinity binding test on human CB2 receptors (tritiated ligand, membranes of recombinant cell lines); conditions: concentration causing 50% inhibition of specific binding of the tritiated ligand, read-out: IC50 (nM) hCB2
Description: Affinity binding tests were performed according to the experimental conditions described by M. Rinaldi-Carmona in J. Pharmacol. Exp. Therap. 1998, 287, 644-650, with membranes derived either from rodent tissues or from recombinant cell lines in which the human CB2 receptors were expressed (Munro et al., Nature 1993, 365, 61-65). The affinity of the compounds is expressed in the form of the IC50 (concentration causing 50% inhibition of specific binding of the tritiated ligand used in vitro).

Sequence of human CB2 receptors (P34972 whole entry): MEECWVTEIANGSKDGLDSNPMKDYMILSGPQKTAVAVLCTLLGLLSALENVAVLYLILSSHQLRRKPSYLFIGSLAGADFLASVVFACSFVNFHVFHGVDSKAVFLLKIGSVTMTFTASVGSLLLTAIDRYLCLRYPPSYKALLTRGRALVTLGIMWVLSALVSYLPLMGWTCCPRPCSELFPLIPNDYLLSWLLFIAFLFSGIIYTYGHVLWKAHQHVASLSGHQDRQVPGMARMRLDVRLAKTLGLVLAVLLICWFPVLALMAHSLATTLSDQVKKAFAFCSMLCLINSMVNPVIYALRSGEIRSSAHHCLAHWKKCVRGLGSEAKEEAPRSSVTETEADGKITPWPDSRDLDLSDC

SMILES	IC50
COc1nc(NCCc2ccc(F)cc2)nc(-c2cccc(OC(C)C)c2)n1 [Compound 2]	39 nM
COc1nc(NCCc2ccc(F)cc2)nc(-c2ccc(OC)c(OC)c2)n1 [Compound 3]	11 nM
COc1nc(NCCc2ccc(F)cc2)nc(-c2ccc(SC)cc2)n1 [Compound 5]	14 nM
COC(=O)CCc1cccc(-c2nc(NCCc3ccc(F)cc3)nc(OC)n2)c1 [Compound 6]	12 nM
COc1nc(NCCc2ccc(F)cc2)nc(-c2ccc3c(c2)OCO3)n1 [Compound 7]	9 nM
COc1nc(NCCc2ccc(F)cc2)nc(-c2ccc3c(c2)OCCO3)n1 [Compound 8]	14 nM
COc1nc(NCCc2ccc(F)cc2)nc(-c2cccc(C(C)=O)c2F)n1 [Compound 10]	10 nM
COc1nc(NCCc2ccc(F)cc2)nc(-c2cccc(S(=O)(=O)NC3CC3)c2)n1 [Compound 11]	2.7 nM
COc1nc(NCCc2ccc(F)cc2)nc(-c2ccc(Cl)c(C(C)(C)O)c2)n1 [Compound 13]	0.4 nM
COc1nc(NCCc2ccc(F)cc2)nc(-c2ccc(F)c(C(C)(C)O)c2)n1 [Compound 14]	8 nM
COc1nc(NCCc2ccc(F)cc2)nc(-c2ccc(C(C)(C)O)c(OC)c2)n1 [Compound 15]	17 nM
COc1nc(NCCc2ccc(F)cc2)nc(-c2ccc(N(C)C)nc2)n1 [Compound 16]	35 nM
COc1nc(NCCc2ccc(F)cc2)nc(-c2cc3cc(Br)ccc3[nH]2)n1 [Compound 17]	17 nM
COc1nc(NCCc2ccc(F)cc2)nc(-c2cc3cc(Cl)ccc3[nH]2)n1 [Compound 19]	14 nM
COc1nc(NCCc2ccc(F)cc2)nc(-c2cc3ccc(F)cc3[nH]2)n1 [Compound 21]	48 nM
COc1nc(NCCc2ccc(F)cc2)nc(-c2cc3cc(C)ccc3[nH]2)n1 [Compound 22]	24 nM
COc1nc(NCCc2ccc(F)cc2)nc(-c2cc3c(OC)cccc3[nH]2)n1 [Compound 23]	33 nM
COc1ccc2[nH]c(-c3nc(NCCc4ccc(F)cc4)nc(OC)n3)cc2c1 [Compound 24]	21 nM
COc1nc(NCCc2ccc(F)cc2)nc(-c2cc3cc(C#N)ccc3[nH]2)n1 [Compound 25]	27 nM
COc1nc(NCCc2ccc(F)cc2)nc(-c2cc3ccc(SC)cc3[nH]2)n1 [Compound 26]	37 nM
COc1nc(NCCc2ccc(F)cc2)nc(-c2cccc3[nH]ccc23)n1 [Compound 27]	27 nM
COc1nc(NCCc2ccc(F)cc2)nc(-c2ccc3[nH]ccc3c2)n1 [Compound 28]	34 nM
COc1nc(NCCc2ccc(F)cc2)nc(-c2ccc3cc[nH]c3c2)n1 [Compound 29]	14 nM
COc1nc(NCCc2ccc(F)cc2)nc(-c2cc3ccccc3o2)n1 [Compound 30]	5 nM
COc1nc(NCCc2ccc(F)cc2)nc(-c2ccc3nonc3c2)n1 [Compound 31]	42 nM
COc1nc(NCCc2ccc(F)cc2)nc(-c2cnc3ccccc3c2)n1 [Compound 32]	34 nM
COc1nc(NCCc2ccc(F)cc2)nc(-c2ccnc3ccccc23)n1 [Compound 33]	11 nM

SMILES	IC50
COc1nc(NCCc2ccc(F)cc2)nc(-c2cccc3ncccc23)n1 [Compound 34]	47 nM
COc1nc(NCCc2ccc(F)cc2)nc(-c2ccc3ncccc3c2)n1 [Compound 35]	32 nM
COc1nc(NCCc2ccc(F)cc2)nc(-c2cccc3cccnc23)n1 [Compound 36]	17 nM
COc1nc(NCCc2ccc(F)cc2)nc(-c2ccc(F)c3cccnc23)n1 [Compound 37]	1 nM
COc1nc(NCCc2ccc(F)cc2)nc(-c2ccc(C)c3ncccc23)n1 [Compound 38]	38 nM
COc1nc(NCCc2ccc(F)cc2)nc(-c2ccc(OC)c3nc(C)ccc23)n1 [Compound 39]	38 nM
COc1nc(NCCc2ccc(F)cc2)nc(-c2cncc3ccccc23)n1 [Compound 40]	21 nM
COc1nc(NCCc2ccc(F)cc2)nc(-c2cccc3cnccc23)n1 [Compound 41]	20 nM
COc1nc(NCCc2ccc(OC(F)F)cc2)nc(-c2cc3c(Cl)cccc3[nH]2)n1 [Compound 42]	24 nM
COc1nc(NCCc2ccc(OC(F)F)cc2)nc(-c2cc3cc(F)ccc3[nH]2)n1 [Compound 43]	45 nM
COc1nc(NCCc2ccc(OC(F)F)cc2)nc(-c2cccc(C(C)(C)O)c2)n1 [Compound 44]	18 nM
COc1nc(NCCc2ccc(OC(F)F)cc2)nc(-c2ccc(F)c(C(C)(C)O)c2)n1 [Compound 45]	30 nM
COc1nc(NCCc2ccc(F)cc2)nc(-c2cc3ccccc3s2)n1 [Compound 47]	4 nM
COc1ccc2oc(-c3nc(NCCc4ccc(F)cc4)nc(OC)n3)cc2c1 [Compound 48]	12 nM
COc1nc(NCCc2ccc(OC(F)F)cc2)nc(-c2cccc(OC)c2C(C)(C)O)n1 [Compound 49]	4 nM
COc1nc(NCCc2ccc(OC(F)(F)F)cc2)nc(-c2ccc(Cl)c(C(C)(C)O)c2)n1 [Compound 50]	12 nM
COc1nc(NCCc2ccc(F)cc2)nc(-c2cc3cc(Cl)ccc3o2)n1 [Compound 51]	23 nM
COc1nc(NCCc2ccc(OC(F)(F)F)cc2)nc(-c2ccc(OC)c(C(C)(C)O)c2)n1 [Compound 54]	9 nM
COc1nc(NCCc2ccc(OC(F)F)cc2)nc(-c2ccc(C)c(S(=O)(=O)NC3CC3)c2)n1 [Compound 55]	44 nM
CCC(O)(CC)c1cccc(-c2nc(NCCc3ccc(F)cc3)nc(OC)n2)c1 [Compound 57]	21 nM
COc1nc(NCCc2ccc(F)cc2)nc(-c2ccc(CO)c(S(=O)(=O)NC3CC3)c2)n1 [Compound 59]	25 nM
COc1nc(NCCc2ccc(OC(F)F)cc2)nc(-c2cccc(S(=O)(=O)NC3CC3)c2)n1 [Compound 60]	23 nM
COc1nc(NCCc2ccc(F)cc2)nc(-c2ccc(Cl)c(S(=O)(=O)NC3CC3)c2)n1 [Compound 62]	4 nM
COc1nc(NCCc2ccc(F)cc2)nc(-c2ccc(OC)c(C#N)c2)n1 [Compound 64]	19 nM
COc1nc(NCCc2ccc(F)cc2)nc(-c2ccc(Cl)c(OCCCNS(C)(=O)=O)c2)n1 [Compound 66]	18 nM
COc1nc(NCCc2ccc(OC(F)F)cc2)nc(-c2ccc(Cl)c(OCC(N)=O)c2)n1 [Compound 68]	11 nM
COc1nc(NCCc2ccc(OCF)cc2)nc(-c2ccc(OC)c(C(C)(C)O)c2)n1 [Compound 70]	9 nM

same assay, conditions: reported in text, read-out: IC50 on hCB2

SMILES	IC50
CC(C)(O)c1cc(-c2nc(NCCc3ccc(F)cc3)nc(OCF)n2)ccc1Cl [Compound 71, 2-{2-Chloro-5-[4-(fluoromethoxy)-6-{[2-(4-fluorophenyl)ethyl]amino}-1,3,5-triazin-2-yl]phenyl}propan-2-ol]	1.2 nM
COc1ccc(-c2nc(NCCc3ccc(F)cc3)nc(OCF)n2)cc1C(C)(C)O [Compound 72, 2-{5-[4-(Fluoromethoxy)-6-{[2-(4-fluorophenyl)ethyl]amino}-1,3,5-triazin-2-yl]-2-methoxyphenyl}propan-2-ol]	1.2 nM

Source: US9115121B2, “1,3,5-triazine-2-amine derivatives, preparation thereof and diagnostic and therapeutic use thereof” (SANOFI, priority 2011, dated 2015)
